Reference: patent US20230021483A1, “[…] […] METHOD AND CLASSIFICATION OF PHARMACEUTICAL COMPONENTS BY USING TRANSCRIPTOMES” (National Institutes of Biomedical Innovation, Health and …, priority 2016, published 2023)

System: preferentially upregulated genes in LV, SP, LN
Experiment: Z-score-based differential gene expression analysis (adjuvant group- or adjuvant-associated genes, 40 module mapping, TargetMine annotation)
Format: in vivo, C57BL/6 mice
Details: for Adar 1425405_a_at (Group G1, Modules 20) / Adar 1434268_at (Group G1, Modules 20) / Ddx58 1436562_at (Group G1, Modules 20) / Ddx58 1456890_at (Group G1, Modules 20) / Eif2ak2 1422005_at (Group G1, Modules 20) / G3bp2 1421323_a_at (Group G1, Modules 20) / Gm9706///Isg15 1431591_s_at (Group G1, Modules 20) / H2-T10///H2-T22///H2-T9 1449875_s_at (Group G1, Modules 20) / Ifih1 1426276_at (Group G1, Modules 20) / Ifit1 1450783_at (Group G1, Modules 20) / Ifit3 1449025_at (Group G1, Modules 20) / Irf7 1417244_a_at (Group G1, Modules 20) / Irgm1 1418825_at (Group G1, Modules 20) / Mndal 1426906_at (Group G1, Modules 20) / Pml 1448757_at (Group G1, Modules 20) / Pml 1456103_at (Group G1, Modules 20) / Rnf213 1455500_at (Group G1, Modules 20) / Rsad2 1436058_at (Group G1, Modules 20) / Shisa5 1423986_a_at (Group G1, Modules 20) / Shisa5 1437503_a_at (Group G1, Modules 20) / Stat1 1450033_a_at (Group G1, Modules 20) / Stat1 1450034_at (Group G1, Modules 20) / Tdrd7 1426716_at (Group G1, Modules 20) / Tor1aip2 1418115_s_at (Group G1, Modules 20) / Tor1aip2 1418116_at (Group G1, Modules 20) / Tor1aip2 1435526_at (Group G1, Modules 20) / Trim12a 1437432_a_at (Group G1, Modules 20) / Uba7 1426970_a_at (Group G1, Modules 20): LV
In short: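 Per-sample fold-change values converted to gene-wise z-scores within each organ's data set, then triplicate z-scores summed per adjuvant. Genes with summed score >3 taken as preferentially expressed; gene groups defined by combined per-adjuvant z-score thresholds (z>1 to z>3) specific to each organ.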

Substance: K3: B class CpG ODN (ATCGACTCTCGAGCGTTCTC), TLR9 ligand (chemistry not given here)
- z sum, 1444615_x_at Runx1t1 (ID, LN, Module#(LN) 1): −2.11
- z sum, 1420894_at Tgfbr1 (ID, LN, Module#(LN) 3): −2.14
- z sum, 1460069_at Smc6 (ID, LN, Module#(LN) 7): −3.53
- z sum, 1440371_at --- (ID, LN, Module#(LN) 8): −1.24
- z sum, 1456346_at --- (ID, LN, Module#(LN) 9): −2.13
- z sum, 1425105_at Rbp3 (ID, LN, Module#(LN) 10): −2.11
- z sum, 1455796_x_at Olfm1 (ID, LN, Module#(LN) 11): −1.44
- z sum, 1443302_at --- (ID, LN, Module#(LN) 12): −2.78
- z sum, 1442518_at C030044O21Rik (ID, LN, Module#(LN) 14): −1.58
- z sum, 1419486_at Foxc1 (ID, LN, Module#(LN) 19): −0.76
- z sum, 1441344_at Erlin1 (ID, LN, Module#(LN) 21): −2.63
- z sum, 1423611_at Alpl (ID, LN, Module#(LN) 24): −1
- z sum, 1448179_at Usmg5 (ID, LN, Module#(LN) 24): −2.02
- z sum, 1458457_at --- (ID, LN, Module#(LN) 26): −0.33
- z sum, 1450377_at Thbs1 (ID, LN, Module#(LN) 28): −2.87
- z sum, 1443853_x_at Sfmbt1 (ID, LN, Module#(LN) 32): −2.59
- z sum, 1443392_at Trpv1 (ID, LN, Module#(LN) 33): −1.04
- z sum, 1440475_at AW011738 (ID, LN, Module#(LN) 36): −2.36
- z sum, 1416380_at Mov10 (ID, LN, Module#(LN) 37): −2.43
- z sum, 1421008_at Rsad2 (ID, LN, Module#(LN) 37): −1.42
- z sum, 1421009_at Rsad2 (ID, LN, Module#(LN) 37): −0.76
- z sum, 1424339_at Oasl1 (ID, LN, Module#(LN) 37): −0.5
- z sum, 1426013_s_at Plekha4 (ID, LN, Module#(LN) 37): −1.53
- z sum, 1436058_at Rsad2 (ID, LN, Module#(LN) 37): −0.71
- z sum, 1436472_at Slfn9 (ID, LN, Module#(LN) 37): −2
- z sum, 1447241_at --- (ID, LN, Module#(LN) 37): −2.6
- z sum, 1416039_x_at Cyr61 (ID, LN, Module#(LN) 39): −1.58
- z sum, 1418191_at Usp18 (ID, LN, Module#(LN) 40): −0.03
- z sum, 1418293_at Ifit2 (ID, LN, Module#(LN) 40): −0.49
- z sum, 1418580_at Rtp4 (ID, LN, Module#(LN) 40): −1
- z sum, 1419603_at Ifi204 (ID, LN, Module#(LN) 40): −1.28
- z sum, 1421911_at Stat2 (ID, LN, Module#(LN) 40): −0.43
- z sum, 1422006_at Eif2ak2 (ID, LN, Module#(LN) 40): −1.95
- z sum, 1422141_s_at Csprs///Gm15433///Gm2666///Gm7609///LOC100041903///LOC100503923 (ID, LN, Module#(LN) 40): −1.36
- z sum, 1423555_a_at Ifi44 (ID, LN, Module#(LN) 40): −1.43
- z sum, 1424444_a_at 1600014C10Rik (ID, LN, Module#(LN) 40): −0.85
- z sum, 1424607_a_at Gm4354 (ID, LN, Module#(LN) 40): −0.89
- z sum, 1424609_a_at Cwc22///Gm4354///Xdh (ID, LN, Module#(LN) 40): −2.76
- z sum, 1431095_a_at Herc6 (ID, LN, Module#(LN) 40): −0.73
- z sum, 1432417_a_at Tspan2 (ID, LN, Module#(LN) 40): −2.15
- z sum, 1439886_at --- (ID, LN, Module#(LN) 40): −1.19
- z sum, 1450403_at Stat2 (ID, LN, Module#(LN) 40): −1.07
- z sum, 1451777_at Ddx60 (ID, LN, Module#(LN) 40): 0.163
- z sum, 1452349_x_at Ifi205///Mnda (ID, LN, Module#(LN) 40): −1.48
- z sum, 1453196_a_at Oasl2 (ID, LN, Module#(LN) 40): −1.27
- z sum, 1453299_a_at Pnp///Pnp2 (ID, LN, Module#(LN) 40): −0.78
- z sum, 1453757_at Herc6 (ID, LN, Module#(LN) 40): −0.2
- z sum, 1456164_at AW011738 (ID, LN, Module#(LN) 40): −2.08
- z sum, 1457035_at Al607873 (ID, LN, Module#(LN) 40): −0.26
- Adar 1425405_a_at (Group G1, Modules 20) (ID, sample x1): −0.3
- Adar 1434268_at (Group G1, Modules 20) (ID, sample x1): −0.6
- Ddx58 1436562_at (Group G1, Modules 20) (ID, sample x1): −0.3
- Ddx58 1456890_at (Group G1, Modules 20) (ID, sample x1): −0.4
- Eif2ak2 1422005_at (Group G1, Modules 20) (ID, sample x1): −0.5
- G3bp2 1421323_a_at (Group G1, Modules 20) (ID, sample x1): −0.4
- Gm9706///Isg15 1431591_s_at (Group G1, Modules 20) (ID, sample x1): −0.5
- H2-T10///H2-T22///H2-T9 1449875_s_at (Group G1, Modules 20) (ID, sample x1): −0.3
- Ifih1 1426276_at (Group G1, Modules 20) (ID, sample x1): −0.4
- Ifit1 1450783_at (Group G1, Modules 20) (ID, sample x1): −0.5
- Ifit3 1449025_at (Group G1, Modules 20) (ID, sample x1): −0.5
- Irf7 1417244_a_at (Group G1, Modules 20) (ID, sample x1): −0.4
- Irgm1 1418825_at (Group G1, Modules 20) (ID, sample x1): −0.5
- Mndal 1426906_at (Group G1, Modules 20) (ID, sample x1): −0.3
- Pml 1448757_at (Group G1, Modules 20) (ID, sample x1): −0.4
- Pml 1456103_at (Group G1, Modules 20) (ID, sample x1): −0.5
- Rnf213 1455500_at (Group G1, Modules 20) (ID, sample x1): −0.5
- Rsad2 1436058_at (Group G1, Modules 20) (ID, sample x1): −0.5
- Shisa5 1423986_a_at (Group G1, Modules 20) (ID, sample x1): −0.5
- Shisa5 1437503_a_at (Group G1, Modules 20) (ID, sample x1): −0.5
- Stat1 1450033_a_at (Group G1, Modules 20) (ID, sample x1): −0.5
- Stat1 1450034_at (Group G1, Modules 20) (ID, sample x1): −0.4
- Tdrd7 1426716_at (Group G1, Modules 20) (ID, sample x1): −0.3
- Tor1aip2 1418115_s_at (Group G1, Modules 20) (ID, sample x1): −0.3
- Tor1aip2 1418116_at (Group G1, Modules 20) (ID, sample x1): −0.4
- Tor1aip2 1435526_at (Group G1, Modules 20) (ID, sample x1): −0.4
- Trim12a 1437432_a_at (Group G1, Modules 20) (ID, sample x1): −0.6
- Uba7 1426970_a_at (Group G1, Modules 20) (ID, sample x1): −0.2
- Adar 1425405_a_at (Group G1, Modules 20) (ID, sample x2): −0.7
- Adar 1434268_at (Group G1, Modules 20) (ID, sample x2): −0.5
- Ddx58 1436562_at (Group G1, Modules 20) (ID, sample x2): −0.4
- Ddx58 1456890_at (Group G1, Modules 20) (ID, sample x2): −0.4
- Eif2ak2 1422005_at (Group G1, Modules 20) (ID, sample x2): −0.5
- G3bp2 1421323_a_at (Group G1, Modules 20) (ID, sample x2): −0.5
- Gm9706///Isg15 1431591_s_at (Group G1, Modules 20) (ID, sample x2): −0.5
- H2-T10///H2-T22///H2-T9 1449875_s_at (Group G1, Modules 20) (ID, sample x2): −0.5
- Ifih1 1426276_at (Group G1, Modules 20) (ID, sample x2): −0.4
- Ifit1 1450783_at (Group G1, Modules 20) (ID, sample x2): −0.5
- Ifit3 1449025_at (Group G1, Modules 20) (ID, sample x2): −0.5
- Irf7 1417244_a_at (Group G1, Modules 20) (ID, sample x2): −0.4
- Irgm1 1418825_at (Group G1, Modules 20) (ID, sample x2): −0.6
- Mndal 1426906_at (Group G1, Modules 20) (ID, sample x2): −0.3
- Pml 1448757_at (Group G1, Modules 20) (ID, sample x2): −0.6
- Pml 1456103_at (Group G1, Modules 20) (ID, sample x2): −0.6
- Rnf213 1455500_at (Group G1, Modules 20) (ID, sample x2): −0.5
- Rsad2 1436058_at (Group G1, Modules 20) (ID, sample x2): −0.5
- Shisa5 1423986_a_at (Group G1, Modules 20) (ID, sample x2): −0.5
- Shisa5 1437503_a_at (Group G1, Modules 20) (ID, sample x2): −0.3
- Stat1 1450033_a_at (Group G1, Modules 20) (ID, sample x2): −0.5
- Stat1 1450034_at (Group G1, Modules 20) (ID, sample x2): −0.5
- Tdrd7 1426716_at (Group G1, Modules 20) (ID, sample x2): −0.6
- Tor1aip2 1418115_s_at (Group G1, Modules 20) (ID, sample x2): −0.3
- Tor1aip2 1418116_at (Group G1, Modules 20) (ID, sample x2): −0.5
- Tor1aip2 1435526_at (Group G1, Modules 20) (ID, sample x2): −0.5
- Trim12a 1437432_a_at (Group G1, Modules 20) (ID, sample x2): −0.5
- Uba7 1426970_a_at (Group G1, Modules 20) (ID, sample x2): −0.3
- Adar 1425405_a_at (Group G1, Modules 20) (IP, sample x1): −0.5
- Adar 1434268_at (Group G1, Modules 20) (IP, sample x1): −0.6
- Ddx58 1436562_at (Group G1, Modules 20) (IP, sample x1): −0.5
- Ddx58 1456890_at (Group G1, Modules 20) (IP, sample x1): −0.4
- Eif2ak2 1422005_at (Group G1, Modules 20) (IP, sample x1): −0.6
- G3bp2 1421323_a_at (Group G1, Modules 20) (IP, sample x1): −0.6
- Gm9706///Isg15 1431591_s_at (Group G1, Modules 20) (IP, sample x1): −0.5
- H2-T10///H2-T22///H2-T9 1449875_s_at (Group G1, Modules 20) (IP, sample x1): −0.2
